# Measurements from patent US20220040129A1, “TREATMENT OF HYPERAMMONEMIA IN PATIENTS WITH RENAL INSUFFICIENCY” (RECORDATI S.p.A., priority 2019, published 2022).
# Where two headings read alike, the source gives them in different places.
# Columns and labels:
# [1] = Adverse reactions in retrospective studies of patients with NAGS deficiency, PA, MMA or IVA; assay type: in vivo, human; details: Total Population = 80
# From the text: Sixty-one percent (61%) of patients were male and 39% of patients were female. In patients with PA, MMA or IVA (48% male and 52% female patients), 57% of decompensation episodes occurred during the first 4 weeks after birth (neonates), and 43% of decompensation episodes occurred beyond the neonatal period. The median age at the start of the decompensation episode was 12 days.
# [2] = CARIV-A-001 Part B: cross-over IV infusion over 2 hours vs oral tablet 100 mg/kg in healthy subjects; assay type: in vivo, human; design: CL, Max / CL, Min: unit not given here; details: for HL (Half-life), Max / HL (Half-life), Min: in h; for AUCinf, Max / AUCinf, Min / aucL, Max / aucL, Min: in ng·h/mL; for AUC(0-inf) / clearance / Cmax / half-life: plasma, iv
# Protocol: The levels of CGA in plasma and urine were analysed using a fully validated method, which included LC-MS/MS analysis. The PK data were analysed based on a non-compartmental model. A model-based approach was implemented for the characterization of the PK properties of the IV formulation in order to estimate the level of PK exposure after different doses administered with different duration of infusion. The model outcomes provided rationales for supporting decision-making through the dose escalation process. The PK parameters were determined using SAS (version 9.3), and modelling of the PK data was performed using NONMEM (version 7.3, ICON Solutions). PART A: Mono-Centre, Randomized, Successive Groups, Double-Blind, Placebo-Controlled Study in Healthy Male and Female Subjects
# Part B was a randomized, double-blind, cross-over, two-sequence study. It was conducted in 12 healthy male and female subjects.
# In two treatment periods, separated by a washout of at least two weeks, subjects received a single administration of the study medication in fasting conditions, either as an IV loading dose infusion of Rec0/0491 over 2 hours (started with 6 mg/kg/h then reduced to 4.0 mg/kg/h), or an oral tablet administration of Carbaglu® (100 mg/kg).
# Blood samples for PK measurements were collected at 19 timepoints for the IV administration and 17 timepoints for the oral administration. This included a sample prior to intake of the study medication and the period ranging from 20 minutes to 72 hours following the initiation of the IV infusion, and the period ranging from 30 minutes to 72 hours following oral intake. Urine was also collected for PK measurements, at the following intervals relative to the time of administration of the study medication: 0-6, 6-12, 12-24, 24-36 and 36-48 hours.
# The PK analysis of Carbaglu was conducted on all subjects showing quantifiable plasma levels using standard non-compartmental approach.
smiles,measurement,setting,value
"NC(=O)N[C@@H](CCC(=O)O)C(=O)O [carglumic acid, N-carbamoyl-L-glutamic acid]","Adverse reaction Abdominal pain, Number of Patients (N) (%)",[1],4 (5%) N (%)
same,"Adverse reaction Anemia, Number of Patients (N) (%)",[1],4 (5%) N (%)
same,"Adverse reaction Anorexia, Number of Patients (N) (%)",[1],2 (3%) N (%)
same,"Adverse reaction Diarrhea, Number of Patients (N) (%)",[1],5 (5%) N (%)
same,"Adverse reaction Dysgeusia, Number of Patients (N) (%)",[1],2 (3%) N (%)
same,"Adverse reaction Ear infection, Number of Patients (N) (%)",[1],3 (4%) N (%)
same,"Adverse reaction Headache, Number of Patients (N) (%)",[1],3 (4%) N (%)
same,"Adverse reaction Hemoglobin decreased, Number of Patients (N) (%)",[1],2 (3%) N (%)
same,"Adverse reaction Hyperhidrosis, Number of Patients (N) (%)",[1],2 (3%) N (%)
same,"Adverse reaction Infection, Number of Patients (N) (%)",[1],3 (4%) N (%)
same,"Adverse reaction Influenza, Number of Patients (N) (%)",[1],2 (3%) N (%)
same,"Adverse reaction Jaundice, Number of Patients (N) (%)",[1],2 (3%) N (%)
same,"Adverse reaction Nasopharyngitis, Number of Patients (N) (%)",[1],3 (4%) N (%)
same,"Adverse reaction Nervous system disorder, Number of Patients (N) (%)",[1],2 (3%) N (%)
same,"Adverse reaction Pneumonia, Number of Patients (N) (%)",[1],2 (3%) N (%)
same,"Adverse reaction Pyrexia, Number of Patients (N) (%)",[1],7 (9%) N (%)
same,"Adverse reaction Rash, Number of Patients (N) (%)",[1],2 (3%) N (%)
same,"Adverse reaction Somnolence, Number of Patients (N) (%)",[1],2 (3%) N (%)
same,"Adverse reaction Tonsillitis, Number of Patients (N) (%)",[1],4 (5%) N (%)
same,"Adverse reaction Transaminase increased, Number of Patients (N) (%)",[1],2 (3%) N (%)
same,"Adverse reaction Vomiting, Number of Patients (N) (%)",[1],6 (8%) N (%)
same,"Adverse reaction Weight decreased, Number of Patients (N) (%)",[1],2 (3%) N (%)
same,"Absolute bioavailability F of the oral vs IV formulation, GeoMean",[2]; 12 subjects,9.57%
same,"Equivalence of exposure, oral tablet 100 mg/kg vs IV infusion over 2 hours",[2]; 90% confidence limits vs reference limits of 0.8 and 1.25,non-equivalent level of exposure
same,"CL, Max","[2]; IV, 8 mg/kg, N 10",0.472
same,"CL, Min","[2]; IV, 8 mg/kg, N 10",0.225
same,"Cmax, Max","[2]; IV, 8 mg/kg, N 10",11700 ng/mL
same,"Cmax, Min","[2]; IV, 8 mg/kg, N 10",5400 ng/mL
same,"HL (Half-life), Max","[2]; IV, 8 mg/kg, N 10",52.95
same,"HL (Half-life), Min","[2]; IV, 8 mg/kg, N 10",22.85
same,"AUCinf, Max","[2]; IV, 8 mg/kg, N 10",35564.90
same,"AUCinf, Min","[2]; IV, 8 mg/kg, N 10",16949.96
same,"aucL, Max","[2]; IV, 8 mg/kg, N 10",34579.31
same,"aucL, Min","[2]; IV, 8 mg/kg, N 10",15713.03
same,"CL, Max","[2]; IV, 12 mg/kg, N 2",0.267
same,"CL, Min","[2]; IV, 12 mg/kg, N 2",0.192
same,"Cmax, Max","[2]; IV, 12 mg/kg, N 2",23500 ng/mL
same,"Cmax, Min","[2]; IV, 12 mg/kg, N 2",19400 ng/mL
same,"HL (Half-life), Max","[2]; IV, 12 mg/kg, N 2",42.59
same,"HL (Half-life), Min","[2]; IV, 12 mg/kg, N 2",27.23
same,"AUCinf, Max","[2]; IV, 12 mg/kg, N 2",62628.03
same,"AUCinf, Min","[2]; IV, 12 mg/kg, N 2",45001.41
same,"aucL, Max","[2]; IV, 12 mg/kg, N 2",61017.40
same,"aucL, Min","[2]; IV, 12 mg/kg, N 2",43281.03
same,"Cmax, Max","[2]; OR, 100 mg/kg, N 12",5620 ng/mL
same,"Cmax, Min","[2]; OR, 100 mg/kg, N 12",1950 ng/mL
same,"HL (Half-life), Max","[2]; OR, 100 mg/kg, N 12",35.31
same,"HL (Half-life), Min","[2]; OR, 100 mg/kg, N 12",17.56
same,"AUCinf, Max","[2]; OR, 100 mg/kg, N 12",45696.37
same,"AUCinf, Min","[2]; OR, 100 mg/kg, N 12",21852.27
same,"aucL, Max","[2]; OR, 100 mg/kg, N 12",44250.17
same,"aucL, Min","[2]; OR, 100 mg/kg, N 12",20030.59
same,Percent of dose excreted in urine,[2]; after IV administration,82%
same,Percent of dose excreted in urine,[2]; after oral administration,7.5%
same,CL renal,"[2]; both sexes, human, plasma and urine, after IV administration, read-out: Renal clearance (converted)",~5 mL/min/kg
same,AUC(0-inf),"[2]; both sexes, human, 8 mg/kg, IV, 8 mg/kg, N 10, read-out: AUCinf, Mean",24500 ng·h/mL
same,AUC(0-inf),"[2]; both sexes, human, 8 mg/kg, IV, 8 mg/kg, N 10, read-out: AUCinf, Median",23700 ng·h/mL
same,clearance,"[2]; both sexes, human, 8 mg/kg, IV, 8 mg/kg, N 10, read-out: CL, Mean (converted)",5.65 mL/min/kg
same,clearance,"[2]; both sexes, human, 8 mg/kg, IV, 8 mg/kg, N 10, read-out: CL, Median (converted)",5.63 mL/min/kg
same,Cmax,"[2]; both sexes, human, 8 mg/kg, IV, 8 mg/kg, N 10, read-out: Cmax, Mean",8610 ng/mL
same,Cmax,"[2]; both sexes, human, 8 mg/kg, IV, 8 mg/kg, N 10, read-out: Cmax, Median",8760 ng/mL
same,half-life,"[2]; both sexes, human, 8 mg/kg, IV, 8 mg/kg, N 10, read-out: HL (Half-life), Mean (converted)",30.6 h
same,half-life,"[2]; both sexes, human, 8 mg/kg, IV, 8 mg/kg, N 10, read-out: HL (Half-life), Median (converted)",28.8 h
